Data as given in ChEMBL document CHEMBL1201862, “PubChem BioAssay data set” (2004).
Several values for one entry are separate records, joined by “and”; a condition that tells them apart may be missing. Identical values can stand only once.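 Method: 48-hour compound exposure of cells in 96-well plates, five concentrations, linear interpolation of endpoints. Here, GI50 denotes the concentration required for 50% inhibition of growth.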 Activity calls are given as the source filed them. Cut-off read from the data, not from the text of the source: active = GI50 up to about 1.1 µM and inactive = higher.

What was measured:
Experiment in all cases: NCI tumour cell line growth inhibition, 48 h
[1] = test system: COLO 205
[2] = test system: MDA-MB-435
[3] = test system: HCT-15
[4] = test system: TK-10
[5] = test system: NCI-H226
[6] = test system: RXF 393
[7] = test system: EKVX
[8] = test system: NCI-H23
[9] = test system: HT-29
[10] = test system: NCI/ADR-RES
[11] = test system: SF-295
[12] = test system: A549
[13] = test system: MDA-MB-231
[14] = test system: MDA-N
[15] = test system: A498
[16] = test system: DU-145
[17] = test system: OVCAR-4
[18] = test system: KM12
[19] = test system: CAKI-1
[20] = test system: PC-3
[21] = test system: SF-539
[22] = test system: M14
[23] = test system: IGROV-1
[24] = test system: SNB-19
[25] = test system: SN12C
[26] = test system: SW-620
[27] = test system: HCT-116
[28] = test system: SF-268
[29] = test system: SK-MEL-28
[30] = test system: OVCAR-8
[31] = test system: OVCAR-3
[32] = test system: ACHN
[33] = test system: U-251
[34] = test system: SK-MEL-5
[35] = test system: SNB-75
[36] = test system: HOP-92
[37] = test system: OVCAR-5
[38] = test system: UO-31
[39] = test system: UACC-257
[40] = test system: UACC-62
[41] = test system: RPMI-8226
[42] = test system: 786-0
[43] = test system: MOLT-4
[44] = test system: HOP-62
[45] = test system: Malme-3M
[46] = test system: SK-MEL-2
[47] = test system: K562
[48] = test system: Hs-578T
[49] = test system: T47D
[50] = test system: LOX IMVI
[51] = test system: HL-60
[52] = test system: NCI-H460
[53] = test system: HCC 2998
[54] = test system: SR
[55] = test system: SK-OV-3
[56] = test system: MCF7
[57] = test system: CCRF-CEM

Which GI50 [1] does the source give for `CC(=O)N1C(=O)CC2(N=C(C)CC2=O)c2ccccc21` (stereo not given) here?
Its GI50 is > 10 µM (inactive).

And the GI50 [2]?
Its GI50 is > 10 µM (inactive).

What about the GI50 [3] of the same compound?
The GI50 was > 10 µM.

And the GI50 [4]?
Its GI50 is > 10 µM (inactive).

What about the GI50 [5] of the same compound?
Its GI50 is > 10 µM (inactive).

What about the GI50 [6] of the same compound?
The GI50 was > 10 µM (inactive).

What about the GI50 [7] of the same compound?
The GI50 was > 10 µM (inactive).

And the GI50 [8]?
The GI50 was > 10 µM (inactive).

And the GI50 [9]?
The GI50 was > 10 µM (inactive).

What about the GI50 [10] of the same compound?
The GI50 was > 10 µM (inactive).

And the GI50 [11]?
The GI50 was > 10 µM (inactive).

What about the GI50 [12] of the same compound?
Its GI50 is > 10 µM (inactive).

And the GI50 [13]?
Its GI50 is > 10 µM (inactive).

What about the GI50 [14] of the same compound?
Its GI50 is > 10 µM (inactive).

And the GI50 [15]?
Its GI50 is > 10 µM (inactive).

What about the GI50 [16] of the same compound?
The GI50 was > 10 µM (inactive).

And the GI50 [17]?
Its GI50 is > 10 µM (inactive).

What about the GI50 [18] of the same compound?
The GI50 was > 10 µM (inactive).

What about the GI50 [19] of the same compound?
Its GI50 is > 10 µM (inactive).

What about the GI50 [20] of the same compound?
The GI50 was > 10 µM (inactive).

What about the GI50 [21] of the same compound?
Its GI50 is 0.0132 µM (active).

And the GI50 [22]?
Its GI50 is > 10 µM (inactive).

And the GI50 [23]?
The GI50 was > 10 µM (inactive).

And the GI50 [24]?
The GI50 was > 10 µM (inactive).

And the GI50 [25]?
The GI50 was > 10 µM (inactive).

And the GI50 [26]?
The GI50 was > 10 µM (inactive).

What about the GI50 [27] of the same compound?
The GI50 was > 10 µM (inactive).

What about the GI50 [28] of the same compound?
The GI50 was > 10 µM (inactive).

What about the GI50 [29] of the same compound?
The GI50 was > 10 µM (inactive).

What about the GI50 [30] of the same compound?
The GI50 was > 10 µM (inactive).

And the GI50 [31]?
Its GI50 is > 10 µM (inactive).

And the GI50 [32]?
Its GI50 is > 10 µM (inactive).

What about the GI50 [33] of the same compound?
The GI50 was > 10 µM (inactive).

What about the GI50 [34] of the same compound?
Its GI50 is > 10 µM (inactive).

What about the GI50 [35] of the same compound?
Its GI50 is > 10 µM (inactive).

And the GI50 [36]?
Its GI50 is > 10 µM (inactive).

And the GI50 [37]?
The GI50 was > 10 µM (inactive).

What about the GI50 [38] of the same compound?
The GI50 was 1.49 µM (inactive).

Which GI50 [4] does the source give for `COC(=O)/C=C/c1cc(OC)c2c(c1)C(C(=O)OC)C(c1ccc(OC)c(OC)c1)O2` (stereo not given) here?
The GI50 was > 100 µM (inactive).

What about the GI50 [6] of the same compound?
Its GI50 is 4.94 µM (inactive).

What about the GI50 [23] of the same compound?
The GI50 was 2.27 µM (inactive).

And the GI50 [39]?
The GI50 was > 100 µM (inactive).

What about the GI50 [35] of the same compound?
Its GI50 is 1.95 µM (inactive).

What about the GI50 [36] of the same compound?
Its GI50 is 55.8 µM (inactive) and > 88.3 µM (inactive).

Which GI50 [1] does the source give for `O/N=C1/CCCc2nonc21` here?
The GI50 was > 100 µM (inactive).

What about the GI50 [2] of the same compound?
The GI50 was > 100 µM (inactive).

What about the GI50 [3] of the same compound?
Its GI50 is > 100 µM.

What about the GI50 [4] of the same compound?
The GI50 was > 100 µM (inactive).

What about the GI50 [5] of the same compound?
Its GI50 is > 100 µM (inactive).

What about the GI50 [40] of the same compound?
The GI50 was > 100 µM (inactive).

And the GI50 [6]?
Its GI50 is > 100 µM (inactive).

What about the GI50 [41] of the same compound?
Its GI50 is > 100 µM (inactive).

And the GI50 [42]?
Its GI50 is > 100 µM (inactive).

And the GI50 [43]?
The GI50 was > 100 µM (inactive).

What about the GI50 [7] of the same compound?
Its GI50 is > 100 µM (inactive).

And the GI50 [8]?
Its GI50 is > 100 µM (inactive).

What about the GI50 [44] of the same compound?
The GI50 was > 100 µM (inactive).

And the GI50 [9]?
Its GI50 is > 100 µM (inactive).

What about the GI50 [10] of the same compound?
Its GI50 is > 100 µM (inactive).

And the GI50 [11]?
Its GI50 is > 100 µM (inactive).

What about the GI50 [12] of the same compound?
The GI50 was > 100 µM (inactive).

What about the GI50 [45] of the same compound?
The GI50 was > 100 µM (inactive).

What about the GI50 [13] of the same compound?
Its GI50 is > 100 µM (inactive).

What about the GI50 [14] of the same compound?
Its GI50 is > 100 µM (inactive).

And the GI50 [46]?
Its GI50 is > 100 µM (inactive).

What about the GI50 [16] of the same compound?
Its GI50 is > 100 µM (inactive).

And the GI50 [17]?
Its GI50 is > 100 µM (inactive).

And the GI50 [18]?
The GI50 was > 100 µM (inactive).

And the GI50 [19]?
The GI50 was > 100 µM (inactive).

And the GI50 [20]?
The GI50 was > 100 µM (inactive).

And the GI50 [47]?
Its GI50 is > 100 µM (inactive).

What about the GI50 [21] of the same compound?
Its GI50 is > 100 µM (inactive).

What about the GI50 [48] of the same compound?
The GI50 was > 100 µM (inactive).

What about the GI50 [49] of the same compound?
Its GI50 is > 100 µM (inactive).

What about the GI50 [22] of the same compound?
The GI50 was > 100 µM (inactive).

And the GI50 [23]?
Its GI50 is > 100 µM (inactive).

And the GI50 [24]?
Its GI50 is > 100 µM (inactive).

And the GI50 [50]?
Its GI50 is > 100 µM (inactive).

What about the GI50 [25] of the same compound?
Its GI50 is > 100 µM (inactive).

What about the GI50 [26] of the same compound?
The GI50 was > 100 µM (inactive).

What about the GI50 [39] of the same compound?
The GI50 was > 100 µM (inactive).

What about the GI50 [27] of the same compound?
Its GI50 is > 100 µM (inactive).

And the GI50 [28]?
Its GI50 is > 100 µM (inactive).

What about the GI50 [51] of the same compound?
The GI50 was > 100 µM (inactive).

What about the GI50 [29] of the same compound?
The GI50 was > 100 µM (inactive).

What about the GI50 [30] of the same compound?
The GI50 was > 100 µM (inactive).

What about the GI50 [31] of the same compound?
Its GI50 is > 100 µM (inactive).

What about the GI50 [32] of the same compound?
Its GI50 is > 100 µM (inactive).

And the GI50 [52]?
Its GI50 is > 100 µM (inactive).

And the GI50 [53]?
Its GI50 is > 100 µM (inactive).

What about the GI50 [54] of the same compound?
Its GI50 is > 100 µM (inactive).

And the GI50 [33]?
Its GI50 is > 100 µM (inactive).

And the GI50 [34]?
Its GI50 is > 100 µM (inactive).

What about the GI50 [35] of the same compound?
Its GI50 is > 100 µM (inactive).

And the GI50 [55]?
The GI50 was > 100 µM (inactive).

What about the GI50 [56] of the same compound?
The GI50 was > 100 µM (inactive).

What about the GI50 [36] of the same compound?
Its GI50 is > 100 µM (inactive).

And the GI50 [37]?
Its GI50 is > 100 µM (inactive).

What about the GI50 [57] of the same compound?
Its GI50 is > 100 µM (inactive).

What about the GI50 [38] of the same compound?
Its GI50 is > 100 µM (inactive).
